Measurements as given in US8497278B2, “Imidazo[1,2-a]pyridine compounds” (priority 2008, dated 2013).

test system: central benzodiazepine receptors; experiment: Central benzodiazepine receptor binding (test of Speth et al.); details: 1000 nM of the compound
Procedure, shortened: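 Radioligand binding by the Speth et al. method. Specific binding is total minus nonspecific binding, the latter measured with excess unlabelled ligand. Compounds screened at 1.0E-09, 1.0E-07 and 1.0E-05 M in single determination; values given as percent inhibition at 1000 nM compound.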

| Compound | % Inhibition at 1000 nM for CBZD |
| --- | --- |
| Cl.Clc1ccc(-c2nc3ccc(Cl)cn3c2CNc2ncccn2)cc1 [Compound 156, N-((6-chloro-2-(4-chlorophenyl)H-imidazo[1,2-a]pyridin-3-yl)methyl)pyrimidin-2-amine hydrochloride] | ++ (percentage of inhibition of central BZD site binding is greater than 80% in the presence of 1000 nM of the compound) |
| Cc1cc(Cl)nc(NCc2c(-c3ccc(C#N)cc3)nc3ccc(Cl)cn23)n1 [Compound 161, 4-(6-chloro-3-((4-chloro-6-methylpyrimidin-2-ylamino)methyl)imidazo[1,2-a]pyridin-2-yl)benzonitrile] | ++ (percentage of inhibition of central BZD site binding is greater than 80% in the presence of 1000 nM of the compound) |
| Cc1ccc(-c2nc3ccc(C)cn3c2CSc2ccccc2)cc1 [Compound 163, 6-Methyl-3-phenylsulfanylmethyl-2-p-tolyl-imidazo[1,2-a]pyridine] | ++ (percentage of inhibition of central BZD site binding is greater than 80% in the presence of 1000 nM of the compound) |
| Fc1cc(F)nc(NCc2c(-c3ccccc3)nc3ccccn23)n1 [Compound 164, 4,6-difluoro-N-((2-phenylimidazo[1,2-a]pyridin-3-yl)methyl)pyrimidin-2-amine] | ++ (percentage of inhibition of central BZD site binding is greater than 80% in the presence of 1000 nM of the compound) |
| Cc1ccc2nc(-c3ccc(F)cc3)c(CNc3nc(F)cc(F)n3)n2c1 [Compound 166, 4,6-difluoro-N-((2-(4-fluorophenyl)-6-methylimidazo[1,2-a]pyridin-3-yl)methyl)pyrimidin-2-amine] | ++ (percentage of inhibition of central BZD site binding is greater than 80% in the presence of 1000 nM of the compound) |
| Fc1cc(F)nc(NCc2c(-c3ccc(Cl)cc3)nc3ccccn23)n1 [Compound 167, N-((2-(4-chlorophenyl)imidazo[1,2-a]pyridin-3-yl)methyl)-4,6-difluoropyrimidin-2-amine] | ++ (percentage of inhibition of central BZD site binding is greater than 80% in the presence of 1000 nM of the compound) |
| Fc1cc(F)nc(NCc2c(-c3ccccc3)nc3ccc(Cl)cn23)n1 [Compound 168, N-((6-chloro-2-phenylimidazo[1,2-a]pyridin-3-yl)methyl)-4,6-difluoropyrimidin-2-amine] | ++ (percentage of inhibition of central BZD site binding is greater than 80% in the presence of 1000 nM of the compound) |
| Fc1ccc(-c2nc3ccc(Cl)cn3c2CNc2nc(F)cc(F)n2)cc1 [Compound 169, N-((6-Chloro-2-(4-fluorophenyl)imidazo[1,2-a]pyridin-3-yl)methyl)-4,6-difluoropyrimidin-2-amine] | ++ (percentage of inhibition of central BZD site binding is greater than 80% in the presence of 1000 nM of the compound) |
| Cc1ccc(-c2nc3c(Cl)cc(Cl)cn3c2CNc2ncc[nH]2)cc1 [Compound 171, (6,8-Dichloro-2-p-tolyl-imidazo[1,2-a]pyridin-3-ylmethyl)-(1H-imidazol-2-yl)-amine] | ++ (percentage of inhibition of central BZD site binding is greater than 80% in the presence of 1000 nM of the compound) |
| Cc1ccc(-c2nc3c(Cl)cc(Cl)cn3c2CNc2nc(C)cc(C)n2)cc1 [Compound 172, (6,8-Dichloro-2-p-tolyl-imidazo[1,2-a]pyridin-3-ylmethyl)-(4,6-dimethyl-pyrimidin-2-yl)-amine] | ++ (percentage of inhibition of central BZD site binding is greater than 80% in the presence of 1000 nM of the compound) |
| Cc1ccc(-c2nc3ccc(C)cn3c2CON2C(=O)c3ccccc3C2=O)cc1 [Compound 173, 2-((6-methyl-2-p-tolylH-imidazo[1,2-a]pyridin-3-yl)methoxy)isoindoline-1,3-dione] | ++ (percentage of inhibition of central BZD site binding is greater than 80% in the presence of 1000 nM of the compound) |
| Cc1ccc(-c2nc3ccc(C)cn3c2COn2nnc3ccccc32)cc1 [Compound 174, 1-((6-methyl-2-p-tolylH-imidazo[1,2-a]pyridin-3-yl)methoxy)-1H-benzo[d][1,2,3]triazole] | ++ (percentage of inhibition of central BZD site binding is greater than 80% in the presence of 1000 nM of the compound) |
| Cc1ccc(-c2nc3ccc(C)cn3c2COc2cccnc2)cc1 [Compound 175, 6-Methyl-3-(pyridin-3-yloxymethyl)-2-p-tolyl-imidazo[1,2-a]pyridine] | ++ (percentage of inhibition of central BZD site binding is greater than 80% in the presence of 1000 nM of the compound) |
| Cc1ccc(-c2nc3ccc(C)cn3c2CSc2nncn2C)cc1 [Compound 176, 3-((4-methyl-4H-1,2,4-triazol-3-ylthio)methyl)-6-methyl-2-p-tolylH-imidazo[1,2-a]pyridine] | ++ (percentage of inhibition of central BZD site binding is greater than 80% in the presence of 1000 nM of the compound) |
| Cc1ccc(-c2nc3ccc(C)cn3c2CSc2nc[nH]n2)cc1 [Compound 177, 6-Methyl-2-p-tolyl-3-(1H-[1,2,4]triazol-3-ylsulfanylmethyl)-imidazo[1,2-a]pyridine] | + (percentage of inhibition of central BZD site binding is greater than 50% but less than 80% in the presence of 1000 nM of the compound) |
| Cc1ccc(-c2nc3ccc(C)cn3c2CSc2cccs2)cc1 [Compound 178, 6-Methyl-3-(thiophen-2-ylsulfanylmethyl)-2-p-tolyl-imidazo[1,2-a]pyridine] | + (percentage of inhibition of central BZD site binding is greater than 50% but less than 80% in the presence of 1000 nM of the compound) |
| Cc1ccc(-c2nc3ccc(C)cn3c2CSc2nncs2)cc1 [Compound 180, 6-Methyl-3-([1,3,4]thiadiazol-2-ylsulfanylmethyl)-2-p-tolyl-imidazo[1,2-a]pyridine] | ++ (percentage of inhibition of central BZD site binding is greater than 80% in the presence of 1000 nM of the compound) |
| Cc1ccc(-c2nc3ccc(C)cn3c2CSc2nc(C)cc(C)n2)cc1 [Compound 181, 3-((4,6-dimethylpyrimidin-2-ylthio)methyl)-6-methyl-2-p-tolylH-imidazo[1,2-a]pyridine] | ++ (percentage of inhibition of central BZD site binding is greater than 80% in the presence of 1000 nM of the compound) |
| CNCCOc1nccc(NCc2c(-c3ccc(Cl)cc3)nc3ccccn23)n1 [Compound 185, N-((2-(4-chlorophenyl)imidazo[1,2-a]pyridin-3-yl)methyl)-2-(2-(methylamino)ethoxy)pyrimidin-4-amine] | ++ (percentage of inhibition of central BZD site binding is greater than 80% in the presence of 1000 nM of the compound) |
| Clc1ccc(-c2nc3ccccn3c2Cc2cncc(OC3CCNC3)n2)cc1 (centres unmarked) [Compound 186, 2-(4-chlorophenyl)-3-((6-(pyrrolidin-3-yloxy)pyrazin-2-yl)methyl)imidazo[1,2-a]pyridine] | ++ (percentage of inhibition of central BZD site binding is greater than 80% in the presence of 1000 nM of the compound) |
